Source: US20240398831A1, “COMPOSITIONS COMPRISING SMALL MOLECULE REGULATORS OF TUMOR IMMUNITY AND METHODS OF USING SAME” (Duke University, priority 2021, published 2024)

Legend:
B16F10 tumors = assay: B16F10 tumor growth in ovariectomized NSG mice; format: in vivo, mouse
Procedure: Tumor formation in these mice were induced with a single intradermal dose of 150 μg of 4-hydroxytamoxifen (4OHT). […] FIGS. 6A-6B and FIGS. 6E-6F are representative of two independent experiments. Data are expressed as mean t S.E.M. Significance was calculated using the Student's t test (FIG. 6C and FIG. 6H), log-rank test (FIG. 6D and FIG. 6G), and two-way ANOVA followed by Bonferroni's multiple correction (FIGS. 6A-6B, FIGS. 6E-6F, and FIG. 6I) (*p<0.05, *p<0.01, and ***<0.001).
Mice. C57BL/BJ, LysMCre (B6.129P2-Lyz2^tm1(cre)lfo/J) Pmel (B6.Cg-Thy1^a/Cy Tg(TcraTcrb)8Rest/J) mice were from Jackson Laboratories (Bar Harbor, ME). Age matched mice were used for all the studies. LysMCre mice were bred to Esr1^f/f mice to generate Esr1^f/f; LysMCre and littermate control LysMCre and Esr1^f/f mice. iBP (Braf^V600E/WT, Pten^f/fmTyrCreERT2) mice were generated by crossing breeders Braf^WT/WT/Pten^f/f, mTyrCreERT2 mice to BRAF^V600E, Pten^f/f mice. The mice were housed in secure animal facility cages in 12 hour light:dark cycles at temperature around 25° C. and 70% humidity. […]
Tumor models and cells. […] Tumors were measured thrice weekly using an electronic caliper. Tumor volumes were calculated by the formula V=L×(W×W)/2. For iBP mouse tumors, volumes were calculated by the formula V=L×B×H. For tumor growth rate studies mice were euthanized when the tumors reached a maximum size of 2000 mm^3.

CD3+ T cells = assay: T cells co-cultured with tumor infiltrating CD11b+ myeloid cells from iBP tumors; format: cell-based, mouse; settings: myeloid cells from E2 vs placebo treated mice, 72 hr
Procedure: T cell proliferation assay and staining. CD3+ T cells were isolated from the spleens of C57BL/6J or P-mel mice with magnetic bead-based T cell isolation kit (Cat #19851, StemCell Technologies). T cells from naïve mice were stained with 5 μM CFSE (Cat #C34554, ThermoFisher Scientific) for 5 minutes in PBS+5% CFS with rapid vortexing following which the cells were washed twice with PBS. Stained T cells were then counted and plated in 96-well plates coated with anti-CD3 antibody (0.5 μg/mL, Cat #19851, ThermoFisher Scientific) anti-CD28 antibody (1 μg/mL, Cat #16-0281-86, Thermo Fisher Scientific) at desired density (250,000 T cells/50,000 CD11b or BMDM) in the presence of IL2 (50 ng/mL) (Cat #212-12, PeproTech). 72 hr after plating the cells were incubated with protein transport inhibitors brefeldin (Cat #00-4506-51, Thermo Fisher Scientific) and monensin (Cat #00-4505-51, Thermo Fisher Scientific) for 6 hr at a final concentration of 2 μM monensin and 3 μg/mL brefeldin after which they were collected and were processed for staining for flow cytometry.
These cells were then co-incubated with CD3^+ T cells isolated from the spleens of non-tumor bearing Pmel mice (Thy1^a/Cy Tg(TcraTcrb)8Rest/J) for 72 hr. iBP tumors express gp100 (Pmel) that can be processed and presented by professional antigen presenting cells to T cells that are specific to the antigen (gp100). Prior to coincubation, T cells were stained with the Carboxyfluorescein succinimidyl ester (CFSE) dye and activated in the presence of sub-optimal CD3/CD28. […] In this experiment, the phenotypic characteristics of the isolated myeloid cells were not defined, i.e., bone marrow derived vs resident macrophages.

YuMM5.2 cells = assay: Quantitative PCR of ER target genes in melanoma cells; format: cell-based, mouse; settings: E2 1 nM, 16 hr

## 17β-estradiol [E2]
B16F10 tumors
  slower tumor growth kinetics imparted by ovariectomy (placebo vs E2): disappeared
CD3+ T cells
  T cell (both CD4+ and CD8+) proliferation, CFSE dye dilution: significantly inhibited
  expression of IFNγ in CD8+ and CD4+ T cells: decreased expression
  expression of granzyme B (GZMB) in CD8+ and CD4+ T cells: decreased expression
YuMM5.2 cells
  expression of classical ER target genes (Pgr and Cxc112): did not lead to changes
